Measurements taken from patent US11739082B2, “Thiophene compounds, process for synthesis and use thereof” (AHAMMUNE BIOSCIENCES PRIVATE LIMITED, priority 2017, dated 2023).
Counter-ions that a name gives are not always drawn.

Columns and labels:
human A375 cells = experiment: Recovery of cell viability after tunicamycin-induced stress, MTT assay; assay type: cell-based; details: A-375, tunicamycin 100 ng/ml, 72 h
Protocol: (§1) Methods used for Experimental Data: Mouse B16F10 or human A375 cells were seeded (5000 cells per well) in 96-well plates for 24 h. Cells were then treated in quadruplicate with multiple concentrations of compounds for 6 h. The compounds were dissolved in DMSO at 1000× concentration and then diluted to final concentration directly in cell culture medium. The vehicle control (VC) contains equal amount of DMSO. Cells were then treated with tunicamycin (Tm) (300 ng/ml for B16F10 and 100 ng/ml for A375 cells) and after 72 h of treatment, MTT assay was performed. Cell growth in vehicle control was calculated as 100% and effect of the compounds over tunicamycin treatment was calculated accordingly. EC50 values were calculated using GraphPad Prism 7 software.

mouse B16F10 cells = experiment: as above; assay type: cell-based; details: B16-F10, tunicamycin 300 ng/ml, 72 h
Protocol: as §1

SMILES | EC50 (human A375 cells) | EC50 (mouse B16F10 cells)
CCCCNC(=O)Cc1ccc(-c2ccc(Cl)cc2)s1 [AB1010, N-butyl-2-(5-(4-chlorophenyl)thiophen-2-yl)acetamide] | 5.22 µM | 6.55 µM
O=C(Cc1ccc(-c2ccc(F)cc2)s1)NCCN1CCOCC1 [AB1093, 2-(5-(4-fluorophenyl)thiophen-2-yl)-N-(2-morpholinoethyl)acetamide] | 31.2 µM | 36.2 µM
O=C(Cc1ccc(-c2ccccc2)s1)NCCN1CCOCC1 [AB1102, N-(2-morpholinoethyl)-2-(5-phenylthiophen-2-yl)acetamide] | 71.1 µM | 55.7 µM
O=C(Cc1ccc(-c2cccc(F)c2)s1)NCCN1CCOCC1 [AB1108, 2-(5-(3-fluorophenyl)thiophen-2-yl)-N-(2-morpholinoethyl)acetamide] | 34.2 µM | 43.7 µM
COc1ccc(-c2ccc(CC(=O)NCCN3CCOCC3)s2)cc1 [AB1115, 2-(5-(4-methoxyphenyl)thiophen-2-yl)-N-(2-morpholinoethyl)acetamide] | – | 53.4 µM
O=C(Cc1ccc(-c2ccc(C(F)(F)F)cc2)s1)NCCN1CCOCC1 [AB1116, N-(2-morpholinoethyl)-2-(5-(4-(trifluoromethyl)phenyl)thiophen-2-yl)acetamide] | – | 13.7 µM
Cc1cc(C)n(-c2cccc(-c3ccc(CC(=O)NCCN4CCOCC4)s3)c2)n1 [AB1117, 2-(5-(3-(3,5-dimethyl-1H-pyrazol-1-yl)phenyl)thiophen-2-yl)-N-(2-morpholinoethyl) acetamide] | 26.7 µM | 20.7 µM
O=C(Cc1ccc(-c2ccc(Cl)cc2)s1)N1CCOCC1 [AB1151, 2-(5-(4-chlorophenyl)thiophen-2-yl)-1-morpholinoethan-1-one] | 10.6 µM | –
O=C(Cc1ccc(-c2ccc(Cl)cc2)s1)N1CCSCC1 [AB1152, 2-(5-(4-chlorophenyl)thiophen-2-yl)-1-thiomorpholinoethan-1-one] | 4.86 µM | –

Results, then the molecule that gave them:

EC50 (human A375 cells) | EC50 (mouse B16F10 cells) | SMILES
48.5 µM | 32.1 µM | O=C(Cc1ccc(-c2ccc(Cl)cc2)s1)NCCN1CCOCC1 [AB1062, 2-(5-(4-chlorophenyl)thiophen-2-yl)-N-(2-morpholinoethyl)acetamide hydrochloride]
17.3 µM | 10 µM | O=C(Cc1ccc(-c2ccc(Cl)cc2Cl)s1)NCCN1CCOCC1 [AB1099, 2-(5-(2,4-dichlorophenyl)thiophen-2-yl)-N-(2-morpholinoethyl)acetamide]
13.9 µM | 6.49 µM | O=C(Cc1ccc(-c2ccc(Cl)cc2Cl)s1)NCCN1CCS(=O)(=O)CC1 [AB1109, 2-(5-(2,4-dichlorophenyl)thiophen-2-yl)-N-(2-(1,1-dioxidothiomorpholino)ethyl)acetamide]
62.7 µM | 6.24 µM | O=C(Cc1ccc(-c2ccc(Cl)cc2Cl)s1)NCCCN1CCOCC1 [AB1110, 2-(5-(2,4-dichlorophenyl)thiophen-2-yl)-N-(3-morpholinopropyl)acetamide]
18.3 µM | 46.7 µM | O=C(Cc1ccc(-c2cccc(Cl)c2)s1)NCCN1CCOCC1 [AB1113, 2-(5-(3-chlorophenyl)thiophen-2-yl)-N-(2-morpholinoethyl)acetamide]
4.26 µM | 12.5 µM | O=C(Cc1ccc(-c2cc(Cl)cc(Cl)c2)s1)NCCN1CCOCC1 [AB1114, 2-(5-(3,5-dichlorophenyl)thiophen-2-yl)-N-(2-morpholinoethyl)acetamide]
31.6 µM | 19.5 µM | O=C(Cc1ccc(-c2ccc(Cl)cc2)s1)NCCCN1CCOCC1 [AB1118, 2-(5-(4-chlorophenyl)thiophen-2-yl)-N-(3-morpholinopropyl)acetamide]
8.47 µM | 9.51 µM | O=C(Cc1ccc(-c2ccc(Cl)cc2Cl)s1)NCCCN1CCS(=O)(=O)CC1 [AB1119, 2-(5-(2,4-dichlorophenyl)thiophen-2-yl)-N-(3-(1,1-dioxidothiomorpholino)propyl)acetamide]
6.02 µM | – | O=C(Cc1ccc(-c2cc(Cl)cc(Cl)c2)s1)NCCCN1CCOCC1 [AB1162, 2-(5-(3,5-dichlorophenyl)thiophen-2-yl)-N-(3-morpholinopropyl)acetamide]
5.15 µM | – | O=C(Cc1ccc(-c2cc(Cl)cc(Cl)c2)s1)NCCN1CCS(=O)(=O)CC1 [AB1163, 2-(5-(3,5-dichlorophenyl)thiophen-2-yl)-N-(2-(1,1-dioxidothiomorpholino)ethyl)acetamide]
3.7 µM | 9.72 µM | O=C(Cc1ccc(-c2cc(Cl)cc(Cl)c2)s1)NCCCN1CCS(=O)(=O)CC1 [AB1164, 2-(5-(3,5-dichlorophenyl)thiophen-2-yl)-N-(3-(1,1-dioxidothiomorpholino)propyl)acetamide]
